From BindingDB's records for doi:10.1016/s0960-894x(99)00332-7 (Warner-Lambert, 1999)

Assays:
[1] = molecular target: T1, Human immunodeficiency virus type 1 protease (Human immunodeficiency virus 1, UniProt Q72874); assay: ChEBML_79977; conditions: pH 4.7
Protocol: Inhibitory activity was evaluated against human immunodeficiency virus type 1(HIV-1) protease at pH 4.7

[2] = molecular target: T1, Human immunodeficiency virus type 1 protease; assay: Inhibitory activity was evaluated against human immunodeficiency virus type 1(HIV-1) protease at pH 6.2

Row | IC50 [1] | IC50 [2] | SMILES
1 | 0.028 µM |  | CCc1c(SC2C(=O)CC(CCc3ccccc3)(c3ccccc3)OC2=O)sc2ccccc12 (centres undefined) [3-(3-Ethyl-benzo[b]thiophen-2-ylsulfanyl)-4-hydroxy-6-phenethyl-6-phenyl-5,6-dihydro-pyran-2-one]
2 | 0.028 µM |  | CC(C)(C)c1cc2c(cc1SC1C(=O)CC(CCc3ccccc3)(c3ccccc3)OC1=O)CCCC2 (centres undefined) [3-(3-tert-Butyl-5,6,7,8-tetrahydro-naphthalen-2-ylsulfanyl)-4-hydroxy-6-phenethyl-6-phenyl-5,6-dihydro-pyran-2-one]
3 |  | 0.211 µM | CC(C)(C)c1oc2ccccc2c1SC1C(=O)CC(CCc2ccccc2)(c2ccccc2)OC1=O (centres undefined) [3-(2-tert-Butyl-benzofuran-3-ylsulfanyl)-4-hydroxy-6-phenethyl-6-phenyl-5,6-dihydro-pyran-2-one]
4 |  | 0.13 µM | CC(C)(C)c1cc2c(cc1SC1C(=O)CC(CCc3ccccc3)(c3ccccc3)OC1=O)CCC2 (centres undefined) [3-(6-tert-Butyl-indan-5-ylsulfanyl)-4-hydroxy-6-phenethyl-6-phenyl-5,6-dihydro-pyran-2-one]
